Reference: publication PMC8001472, “Novel Selective IDO1 Inhibitors with Isoxazolo[5,4-d]pyrimidin-4(5H)-one Scaffold” (Pharmaceuticals, 2021)

How the values were obtained:
IDO1 = IDO1 (Homo sapiens, UniProt P14902); assay: Cell-based IDO1 inhibitory assay on IFN-γ treated HeLa cells; design: endogenous in cells; host or cells: HeLa cells treated with human IFN-γ
Method: All active compounds were additionally evaluated on a cellular level, starting with the determination of cytotoxicity on Hep G2 cell line using the MTS assay (Figure 3), where inner salt of [3-(4,5-dimethylthiazol-2-yl)-5-(3-carboxymethoxyphenyl)-2-(4-sulfophenyl)-2H-tetrazolium is converted to formazan product, its quantity is directly proportional to the number of living cells. Since the majority of compounds were only partially soluble in a cell medium at concentrations above 100 μM, their effect on cell viability was measured at 50 μM, 10 μM, and 1 μM. […] Taken together, the results obtained from cellular tests reminded us of the necessity to consider the physicochemical properties of compounds even at the early stages of design.
HeLa cells were seeded in 96-well plates (2 × 10^4 cells/well) and maintained in Dulbecco’s modified Eagle’s medium, supplemented with 10% fetal bovine serum (both from Thermo Fisher Scientific, Waltham, MA, USA) and 100 µg/mL gentamicin (Sigma-Aldrich, St. Louis, MO, USA). Following overnight incubation in a humidified chamber at 37 °C and 5% CO2 cells were treated with human IFN-γ (50 ng/mL final concentration). […] The absorbance (λABS = 480 nm) of the yellow color derivate formed after 10 min was measured using a microplate reader (Synergy H4; BioTek Instruments, Inc., Winooski, VT, USA).

hIDO2 = target: T1, hIDO2 (Homo sapiens, UniProt Q6ZQW0); assay: hIDO2 inhibitory potency evaluation (fluorescence assay); format: biochemical
T1 construct: purchased Vinci-Biochem
T1 sequence (Q6ZQW0 1-407): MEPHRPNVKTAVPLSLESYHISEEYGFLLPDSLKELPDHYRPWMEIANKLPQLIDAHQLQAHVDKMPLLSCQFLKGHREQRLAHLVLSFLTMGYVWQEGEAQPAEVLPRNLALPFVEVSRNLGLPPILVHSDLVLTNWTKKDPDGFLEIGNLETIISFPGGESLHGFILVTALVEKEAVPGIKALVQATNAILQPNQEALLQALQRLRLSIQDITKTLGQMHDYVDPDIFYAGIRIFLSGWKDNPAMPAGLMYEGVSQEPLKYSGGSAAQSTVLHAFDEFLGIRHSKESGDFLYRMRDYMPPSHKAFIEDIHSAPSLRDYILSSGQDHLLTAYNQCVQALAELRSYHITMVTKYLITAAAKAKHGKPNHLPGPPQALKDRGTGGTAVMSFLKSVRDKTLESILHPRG
Method: Additionally, to determine IDO1 selectivity, all final compounds were assayed for their inhibitory potencies towards hIDO2 and hTDO. For this purpose, two new protocols were developed based on the published fluorescence assay for hIDO1 [25]. Sodium ascorbate, methylene blue, and bovine catalase were used in the same concentrations as for hIDO1. 50 mM phosphate buffers with pH values of 7.5 and 7.0 were used for hIDO2 and hTDO, respectively, as has been already mentioned before. First, the activities of hIDO2 and hTDO were determined at four different concentrations. […] Additionally, the effect of DMSO concentration on enzyme activity was investigated. […] The optimal hIDO2 and hTDO assay concentrations of the substrate L-Trp were determined to be 4 mM and 500 μM, respectively.
Activity of the compounds on hIDO2 was determined according to the previously reported fluorescence protocol for hIDO1 [25] and reported absorbance protocols for hIDO2 [30, 36] with several modifications. Recombinant hIDO2 was purchased from Vinci-Biochem (Vinci-Biochem, Srl, Vinci, Italy), bovine catalase was purchased from Sigma-Aldrich (Sigma-Aldrich, St. Louis, MO, USA). Prior to the measurement of activity for compounds, the enzyme activity was determined and optimal assay enzyme concentration was selected. The amounts of reagents needed to perform the assay were optimized. Briefly, the reagents needed were dissolved in 50 mM potassium phosphate buffer (pH 7.5, 0.01%, v/v Tween 20), the reaction was performed in black 384-well microplates. After the addition of 1 μL of 100 mM sodium ascorbate neutralized with an equimolar amount of 1M NaOH, 1 μL of 100 μM methylene blue, 1 μL of 1 mg/mL bovine catalase, 0.5 μL of DMSO (negative control) or solution of a compound in DMSO, 5 μL of […] hIDO2 and 1.5 μL of 26.7 mM L-Trp were added and the microplate was incubated for 60 min at 37 °C. The reaction was quenched with the addition of 10 μL of 400 mM piperidine solution in MilliQ water and the formation of the examined fluorophore began following incubation at 65 °C for 20 min. The production of NFK-derived fluorophore (λEX = 400 nm, λEM = 500 nm) was measured using a microplate reader (Synergy H4; BioTek Instruments, Inc., Winooski, VT, USA) after 60 min post-incubation at room temperature. In the preliminary testing compounds were tested at 100 μM with activities determined as residual activities—RA, which were calculated to% of inhibition, presented in Table 1 and Table 2. (% of inhibition = 100% − RA). All determinations were carried out in duplicates.

IDO1, sequence (P14902 whole entry): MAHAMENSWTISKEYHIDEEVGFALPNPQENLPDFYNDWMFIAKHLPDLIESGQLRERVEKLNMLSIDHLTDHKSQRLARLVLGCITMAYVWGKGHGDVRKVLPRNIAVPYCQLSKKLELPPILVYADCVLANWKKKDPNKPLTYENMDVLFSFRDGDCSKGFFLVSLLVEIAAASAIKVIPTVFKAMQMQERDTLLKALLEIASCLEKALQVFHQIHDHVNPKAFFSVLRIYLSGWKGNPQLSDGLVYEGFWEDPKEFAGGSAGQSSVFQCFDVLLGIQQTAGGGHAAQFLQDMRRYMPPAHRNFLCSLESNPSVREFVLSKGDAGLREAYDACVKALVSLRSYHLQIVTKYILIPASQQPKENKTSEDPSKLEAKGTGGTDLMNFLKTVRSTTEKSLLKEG

cell-based IDO1 inhibition (IDO1): no activity was detected
hIDO2 inhibition (in words) (hIDO2): no activity
SMILES: O=C(Cn1cnc2onc(-c3ccc(F)cc3)c2c1=O)Nc1ccc(C(F)(F)F)cc1 [Compound 23]
